Assay results published in patent publication US20240110915A1, “METHODS, PRODUCTS AND SYSTEMS FOR PROGNOSIS OF SUBJECTS SUFFERING FROM MULTIPLE MYELOMA” (University of South Australia, priority 2020, published 2024).
Each block holds one compound with its values, some of them ahead of it.

Key:
DSG2 = DSG2 protein knockdown in KMS-11 cells by Western blot; assay type: cell-based, human; conditions: stable shRNA expression
Excerpt: Lentiviral vectors (pGIPZ) expressing DSG2-shRNA and non-silencing control-shRNA were obtained from Open Biosystem (Dharmacon). The following shRNA sequences were cloned into the pGIPZ expression plasmid: 5′-TGGATGTCAATGACAATAT-3′ (DSG2-shRNA60) (SEQ ID NO. 2); 5′-CCAGTGTTCTACCTAAATA-3′ (DSG2-shRNA62) (SEQ ID NO. 3); and
5′-[…]-3′ (non-silencing shRNA) (SEQ ID NO. 4). Replication incompetent lentiviral particles were generated by transiently co-transfecting HEK293T cells with ViraPower Lentiviral Support Kit (Invitrogen) and pGIPZ-shRNA vectors using Lipofectamine 2000 (Invitrogen). […]
KMS-11 cells cultured on 100 mm Petri dishes were washed twice with ice-cold PBS and solubilized in RIPA lysis buffer (150 mM NaCl, 50 mM Tris-HCl, pH 7.5, 1% Triton X-100, 1% deoxycholate, 0.1% SDS, and 2 mM EDTA) containing both protease (cOmplete™, Roche) and phosphatase inhibitors (PhosStop™, Roche) for 10 min on ice. The lysates were clarified by centrifugation at 13,000×g for 10 min at 4° C., and protein concentrations determined using the bicinchoninic acid protein assay kit (Pierce). […] After washing, immunoreactivity was detected by using the Odyssey infrared imager (Li-COR). […] Band intensities were quantitated by densitometry using the software associated with the Odyssey infrared imager (Li-COR).

[1] = test system: KMS-11 human multiple myeloma cells; experiment: Cell viability by AnnexinV staining, flow cytometric analysis; assay type: cell-based; conditions: overnight exposure, 4 nM
Excerpt: (§1) Lentiviral vectors (pGIPZ) expressing DSG2-shRNA and non-silencing control-shRNA were obtained from Open Biosystem (Dharmacon) and cloned into the pGIPZ expression plasmid: 5′-TGGATGTCAATGACAATAT-3′ (SEQ ID NO: 2; DSG2-shRNA60); 5′-CCAGTGTTCTACCTAAATA-3′ (SEQ ID NO:3; DSG2-shRNA62); and 5′-[…]-3′ (SEQ ID NO: 4; non-silencing shRNA). Replication incompetent lentiviral particles were generated by transiently co-transfecting HEK293T cells with ViraPower Lentiviral Support Kit (Invitrogen) and pGIPZ-shRNA vectors using Lipofectamine 2000 (Invitrogen). Lentiviral supernatant was harvested 72 hours post-transfection and used to transduce 1×10^5 KMS-11 cells that were seeded in a 6-well plate, in the presence of 4 μg/mL polybrene. Puromycin (1 μg/mL) was continually added to maintain culture of cells with the transduced vectors and DSG2 expression was routinely checked using flow cytometry and western blot. Cell without and with DSG2 KD were cultured with increasing concentrations of Bortezomib (2-4 nM, (Janssen Cilag, New Brunswick NJ)) and after 12 hours the cell viability was determined using AnnexinV staining using flow cytometric analysis.

[2] = test system: KMS-11 cells with stable knockdown of DSG2 (DSG2 shRNA); experiment: Cell viability by AnnexinV staining, cells with stable DSG2 knockdown; assay type: cell-based, human; conditions: over 12 hours at 2 nM and 4 nM; compared with cells without knockdown
Excerpt: as §1

[3] = biological target: human desmoglein 2 (DSG2) (human) (UniProt Q14126); experiment: cell-based or functional assay

Compound: 5′-CCAGTGTTCTACCTAAATA-3′ [DSG2-shRNA62]
knockdown of DSG2 protein (DSG2): Efficient knockdown

Compound: 5′-TGGATGTCAATGACAATAT-3′ [DSG2-shRNA60]
knockdown of DSG2 protein (DSG2): Efficient knockdown

Compound: CC(C)C[C@H](NC(=O)[C@H](Cc1ccccc1)NC(=O)c1cnccn1)B(O)O [Bortezomib]
viability of KMS-11 human multiple myeloma cells [1]: reduced
sensitivity to Bortezomib (cell viability) of KMS-11 cells with stable DSG2 knockdown [2]: even further increased sensitivity

reduction in adhesion of KMS-11 cells with DSG2 knockdown (shRNA construct A) to a BMEC-DSG2 monolayer, compared to the NT control cell line [3]: 28.1%
reduction in adhesion of KMS-11 cells with DSG2 knockdown (shRNA construct C) to a BMEC-DSG2 monolayer, compared to the NT control cell line [3]: 35.6%
Compound: human desmoglein 2 (DSG2) (from UniProt Q14126 50-1118)
